# Legend:
# [1] = tested on: B. subtilis A9506-A; assay: Antibacterial activity (MIC), serial two-fold agar dilution; assay type: cell-based; conditions: Bacillus subtilis, A9506A
# Procedure: (§1) Antimicrobial activity of BMY-41339 was determined for a variety of bacteria by the serial two-fold agar dilution method.
# [2] = tested on: E. coli A15119; assay: as above; assay type: cell-based; conditions: Escherichia coli
# Procedure: as §1
# [3] = tested on: E. coli A20697; assay: as above; assay type: cell-based; conditions: Escherichia coli
# Procedure: as §1
# [4] = tested on: E. coli A9751; assay: as above; assay type: cell-based; conditions: Escherichia coli
# Procedure: as §1
# [5] = tested on: E. faecalis A20688; assay: as above; assay type: cell-based; conditions: Enterococcus faecalis
# Procedure: as §1
# [6] = tested on: E. faecalis A25707; assay: as above; assay type: cell-based; conditions: Enterococcus faecalis
# Procedure: as §1
# [7] = tested on: E. faecalis A25708; assay: as above; assay type: cell-based; conditions: Enterococcus faecalis
# Procedure: as §1
# [8] = tested on: K. pneumoniae A20468; assay: as above; assay type: cell-based; conditions: Klebsiella pneumoniae
# Procedure: as §1
# [9] = tested on: K. pneumoniae A9664; assay: as above; assay type: cell-based; conditions: Klebsiella pneumoniae
# Procedure: as §1
# [10] = tested on: P. aeruginosa A20235; assay: as above; assay type: cell-based; conditions: Pseudomonas aeruginosa
# Procedure: as §1
# [11] = tested on: P. aeruginosa A21508; assay: as above; assay type: cell-based; conditions: Pseudomonas aeruginosa
# Procedure: as §1
# [12] = tested on: P. aeruginosa A9843; assay: as above; assay type: cell-based; conditions: Pseudomonas aeruginosa
# Procedure: as §1
# [13] = tested on: P. vulgaris A21559; assay: as above; assay type: cell-based; conditions: Proteus vulgaris
# Procedure: as §1
# [14] = tested on: S. aureus A20698; assay: as above; assay type: cell-based; conditions: Staphylococcus aureus
# Procedure: as §1
# [15] = tested on: S. aureus A24407; assay: as above; assay type: cell-based; conditions: Staphylococcus aureus
# Procedure: as §1
# [16] = tested on: S. aureus A9537; assay: as above; assay type: cell-based; conditions: Staphylococcus aureus
# Procedure: as §1
# [17] = tested on: P388 leukemia; assay: In vivo antitumor activity, P388 leukemia implanted ip, drug ip; design: species or system mouse
# Procedure: The in vivo antitumor activity of BMY-41339 was determined in the standard P388 mouse leukemia model. A summary of the experiments performed using BMY-41339 is provided below.
# DBA/2 and (Balb/c × DBA/2)F1 (CDF1) hybrid mice were purchased from Charles River Breeding Co. (Wilmington, MA). They were provided food and water ad libitum.
# The P388 murine ascites leukemia was maintained by weekly in vivo passage in DBA/2 mice.
# Esperamicin A1 and BMY-41339 were dissolved in ethanol. Further dilutions were made with 0.9% NaCl (saline) until the ethanol concentration (v/v) was 10%. All administrations were made, therefore, in a 10% ethanol in saline vehicle. For ip injections, the concentration of compound was adjusted according to the average initial body weight of each group of mice to be injected such that the desired dose would be contained in a 0.5 ml injection volume. The same procedure was used for iv compound administration except the injection volume was 0.2 ml.
# Antitumor experiments were initiated by implanting […] P388 leukemia cells either ip or iv into CDF1 mice. BMY-41339 and esperamicin A1 (included as a positive reference compound), were injected either ip in mice implanted ip with P388, or iv in mice implanted iv with P388 on Day 2 post-implant only Eight different dose levels of BMY-41339, at two-fold increments, were evaluated in each of the two experiments performed.
# A % T/C value of ≥ 125 was considered indicative of activity in these models.
# [18] = Exp. 8102, ip, 0.025 mg/kg/dose
# [19] = Exp. 8109, ip, 0.025 mg/kg/dose
smiles,measurement,setting,value
C=C(OC)C(=O)Nc1cc(OC)c(OC)cc1C(=O)OC1CC(OC2C(=O)C(NC(=O)OC)=C3C(=CCSSSSC)C2(O)C#CC=CC#CC3OC2OC(C)C(NOC3CC(O)C(SC)C(C)O3)C(O)C2OC2CC(OC)C(NC(C)C)CO2)OC(C)C1O (stereo not drawn) [BMY-41339],MIC,[1],0.001 µg/mL
same,MIC,[2],0.25 µg/mL
same,MIC,[3],0.25 µg/mL
same,MIC,[4],0.016 µg/mL
same,MIC,[5],0.002 µg/mL
same,MIC,[6],0.002 µg/mL
same,MIC,[7],0.002 µg/mL
same,MIC,[8],1 µg/mL
same,MIC,[9],1 µg/mL
same,MIC,[10],0.13 µg/mL
same,MIC,[11],0.25 µg/mL
same,MIC,[12],0.25 µg/mL
same,MIC,[13],0.13 µg/mL
same,MIC,[14],0.001 µg/mL
same,MIC,[15],0.001 µg/mL
same,MIC,[16],0.001 µg/mL
same,T/C,"[17]; Exp. 8102, ip, 1.6 μg/kg",145%
same,T/C,"[17]; Exp. 8102, ip, 3.2 μg/kg (highest dose tested)",140%
same,% T/C,[17]; [18],110%
same,Avg. wt. change on day 6,[17]; [18],0.8 grams
same,Survivors on Day 5,[17]; [18],6/6
same,% T/C,"[17]; Exp. 8102, ip, 0.05 mg/kg/dose",110%
same,Avg. wt. change on day 6,"[17]; Exp. 8102, ip, 0.05 mg/kg/dose",1.3 grams
same,Survivors on Day 5,"[17]; Exp. 8102, ip, 0.05 mg/kg/dose",6/6
same,% T/C,"[17]; Exp. 8102, ip, 0.1 mg/kg/dose",120%
same,Avg. wt. change on day 6,"[17]; Exp. 8102, ip, 0.1 mg/kg/dose",0.7 grams
same,Survivors on Day 5,"[17]; Exp. 8102, ip, 0.1 mg/kg/dose",6/6
same,% T/C,"[17]; Exp. 8102, ip, 0.2 mg/kg/dose",140%
same,Avg. wt. change on day 6,"[17]; Exp. 8102, ip, 0.2 mg/kg/dose",0.6 grams
same,Survivors on Day 5,"[17]; Exp. 8102, ip, 0.2 mg/kg/dose",6/6
same,% T/C,"[17]; Exp. 8102, ip, 0.4 mg/kg/dose",135%
same,Avg. wt. change on day 6,"[17]; Exp. 8102, ip, 0.4 mg/kg/dose",0.6 grams
same,Survivors on Day 5,"[17]; Exp. 8102, ip, 0.4 mg/kg/dose",6/6
same,% T/C,"[17]; Exp. 8102, ip, 0.8 mg/kg/dose",140%
same,Avg. wt. change on day 6,"[17]; Exp. 8102, ip, 0.8 mg/kg/dose",0.4 grams
same,Survivors on Day 5,"[17]; Exp. 8102, ip, 0.8 mg/kg/dose",6/6
same,% T/C,"[17]; Exp. 8102, ip, 1.6 mg/kg/dose",145%
same,Avg. wt. change on day 6,"[17]; Exp. 8102, ip, 1.6 mg/kg/dose",-0.1 grams
same,Survivors on Day 5,"[17]; Exp. 8102, ip, 1.6 mg/kg/dose",6/6
same,% T/C,"[17]; Exp. 8102, ip, 3.2 mg/kg/dose",140%
same,Avg. wt. change on day 6,"[17]; Exp. 8102, ip, 3.2 mg/kg/dose",0.7 grams
same,Survivors on Day 5,"[17]; Exp. 8102, ip, 3.2 mg/kg/dose",6/6
same,% T/C,"[17]; Exp. 8102, ip, single injections above 0.1 μg/kg, Day 2 only",≥ 135%
same,"overt drug-associated toxicity (e.g. excessive body weight loss, early deaths)","[17]; Exp. 8102, ip, up to 3.2 μg/kg",no obvious sign of overt drug-associated toxicity
same,% T/C,[17]; [19],110%
same,Avg. wt. change on day 6,[17]; [19],0.8 grams
same,Survivors on Day 5,[17]; [19],6/6
same,T/C,"[17]; Exp. 8109, ip, 32 μg/kg (highest dose tested)",171%
same,% T/C,"[17]; Exp. 8109, ip, 0.05 mg/kg/dose",110%
same,Avg. wt. change on day 6,"[17]; Exp. 8109, ip, 0.05 mg/kg/dose",1.3 grams
same,Survivors on Day 5,"[17]; Exp. 8109, ip, 0.05 mg/kg/dose",6/6
same,% T/C,"[17]; Exp. 8109, ip, 0.1 mg/kg/dose",120%
same,Avg. wt. change on day 6,"[17]; Exp. 8109, ip, 0.1 mg/kg/dose",0.7 grams
same,Survivors on Day 5,"[17]; Exp. 8109, ip, 0.1 mg/kg/dose",6/6
same,% T/C,"[17]; Exp. 8109, ip, 0.2 mg/kg/dose",140%
same,Avg. wt. change on day 6,"[17]; Exp. 8109, ip, 0.2 mg/kg/dose",0.6 grams
same,Survivors on Day 5,"[17]; Exp. 8109, ip, 0.2 mg/kg/dose",6/6
same,% T/C,"[17]; Exp. 8109, ip, 0.4 mg/kg/dose",135%
same,Avg. wt. change on day 6,"[17]; Exp. 8109, ip, 0.4 mg/kg/dose",0.6 grams
same,Survivors on Day 5,"[17]; Exp. 8109, ip, 0.4 mg/kg/dose",6/6
same,% T/C,"[17]; Exp. 8109, ip, 0.8 mg/kg/dose",140%
same,Avg. wt. change on day 6,"[17]; Exp. 8109, ip, 0.8 mg/kg/dose",0.4 grams
same,Survivors on Day 5,"[17]; Exp. 8109, ip, 0.8 mg/kg/dose",6/6

# Reference: patent publication US5086045A, “Antitumor antibiotic” (Bristol-Myers Squibb Company, priority 1990, dated 1992)
